Measurements from patent US20250002470A1, “NITROGEN-CONTAINING COMPOUND, PREPARATION METHOD THEREFOR AND APPLICATION THEREOF” (ZHEJIANG AIXPLORER BIOTECH CO., LTD., priority 2021, published 2025).

Tests used:
hERG potassium channel = hERG potassium channel (Homo sapiens, UniProt Q12809); assay: Whole-cell patch-clamp (QPatch) of hERG current in HEK293 cells stably expressing hERG; assay type: cell-based
Experimental: In this study, a whole-cell patch-clamp technique was used to study the inhibitory effect of compounds on hERG potassium channels and to evaluate the risk of ventricular repolarization toxicity.
The HEK293 cell line stably expressing the hERG potassium channel cells was purchased from Creacell, Inc. (Cat. No. A-0320).
The HEK293 cell line that can stably express the hERG potassium channel, was cultured in DMEM medium containing 10% fetal bovine serum and 0.8 mg/mL G418 at 37° C. and 5% carbon dioxide.
Before the test, the cells were separated with TrypLET Express, centrifuged after adding medium to terminate digestion, resuspended the cell count, adjusted the cell density to 2-3×10^6 cells/mL, and then lightly mixed the cells on a room temperature equilibration shaker for 15-20 min.
Electrophysiological assays were performed using a fully automated patch-clamp QPatch 48 X (Sophion) device. The prepared cells were placed on a centrifuge on the Qpatch bench, the cells were washed using multiple centrifugation/suspension methods, and the cell culture medium was replaced with extracellular fluid. Remove an MTP-96 plate and place it in the location of the MTP source. Remove the QPlate chip and subsequently place the QPlate at the Qplate source location. The robotic arm scans the MTP-96 board and the QPlate chip barcode and grabs it to the measuring station. Draw the intracellular and external fluid from the liquid pool and add them to the intracellular fluid pool, cell and test cell pool of the QPlate chip, respectively. At the measuring station, all measuring sites on the QPlate undergo initial quality control. The quality control process includes aspirating the cell suspension from the cell vessel of the centrifuge and positioning the cells to the chip wells via a pressure controller to establish a high-resistance seal and create a whole-cell recording pattern.
The voltage stimulation protocol for whole-cell patch-clamp recording of whole-cell hERG potassium currents is as follows: the cell membrane voltage clamps at −80 mV when a whole-cell closure is formed. The clamping voltage is depolarized from −80 mV to −50 mV for 0.5 s (as a leakage current detection), then steps to 30 mV for 2.5 s, and then quickly recovers to −50 mV for 4 s to excite the tail current of the hERG channel. The data were collected repeatedly every 10 s to observe the effect of the drug on the hERG tail current. −50 mV stimulation at 0.5 s was used as the leakage current detection. The test data is collected by Qpatch and stored in the connected service station.
First, the current after the effect of each drug concentration and the blank control current are normalized 0, and then the inhibition rate corresponding to each drug concentration is calculated.
Calculate the mean and standard error for each concentration and calculate the semi-inhibitory concentration for each compound using the following Formula:
Y=Bottom+(Top−Bottom)/(1+10^((LogIC50−X)*HillSlope)) The above Formula was used to fit the dose-dependent effect nonlinearly, where C represents the test substance concentration, IC50 is the semi-inhibitory concentration, and h represents the Hill coefficient. Curve fitting and IC50 calculations were performed using Graphpad software.

NLRP3 = molecular target: T1, NLRP3 (Homo sapiens, UniProt Q96P20); assay: IL-1β (interleukin-1β) secretion in IFN-γ-differentiated, LPS/ATP-stimulated THP-1 cells (half inhibition rate of NLRP3); assay type: cell-based; settings: IFN-γ 25 ng/mL, LPS 50 ng/mL, ATP 5 mM
T1 construct: endogenous in cells; host or cells: THP-1 cells (IFN-γ differentiated, LPS primed, ATP stimulated)
T1 sequence (Q96P20 whole entry): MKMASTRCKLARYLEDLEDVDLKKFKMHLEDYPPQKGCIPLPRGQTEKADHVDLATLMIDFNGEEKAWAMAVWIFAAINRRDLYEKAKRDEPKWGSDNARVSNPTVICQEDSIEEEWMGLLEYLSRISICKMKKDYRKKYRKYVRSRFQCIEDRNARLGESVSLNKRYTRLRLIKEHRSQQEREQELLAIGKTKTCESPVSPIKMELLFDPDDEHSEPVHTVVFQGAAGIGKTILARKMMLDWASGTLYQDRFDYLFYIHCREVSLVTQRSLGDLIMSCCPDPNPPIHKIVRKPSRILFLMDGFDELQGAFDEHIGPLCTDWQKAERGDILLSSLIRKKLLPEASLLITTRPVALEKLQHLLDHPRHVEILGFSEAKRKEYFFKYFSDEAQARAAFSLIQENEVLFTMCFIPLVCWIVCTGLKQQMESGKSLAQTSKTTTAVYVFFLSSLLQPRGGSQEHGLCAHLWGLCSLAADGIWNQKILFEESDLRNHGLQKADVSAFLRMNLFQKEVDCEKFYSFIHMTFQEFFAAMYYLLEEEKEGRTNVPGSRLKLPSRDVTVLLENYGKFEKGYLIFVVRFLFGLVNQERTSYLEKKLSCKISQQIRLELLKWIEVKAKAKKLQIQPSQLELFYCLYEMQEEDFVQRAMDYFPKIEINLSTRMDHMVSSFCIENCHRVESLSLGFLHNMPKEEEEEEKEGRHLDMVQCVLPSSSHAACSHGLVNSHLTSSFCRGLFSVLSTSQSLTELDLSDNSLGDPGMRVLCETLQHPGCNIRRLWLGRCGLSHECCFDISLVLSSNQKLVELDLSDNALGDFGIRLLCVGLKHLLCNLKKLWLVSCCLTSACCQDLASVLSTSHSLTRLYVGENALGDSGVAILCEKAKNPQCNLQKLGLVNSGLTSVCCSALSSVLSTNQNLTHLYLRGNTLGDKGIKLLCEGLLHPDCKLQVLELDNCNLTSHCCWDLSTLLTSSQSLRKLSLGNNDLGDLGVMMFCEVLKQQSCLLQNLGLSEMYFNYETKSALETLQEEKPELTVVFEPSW
Experimental: Remove THP-1 cells from liquid nitrogen and place in a 37° C. water bath until ice melt. Add the cells to 5 mL of warm cell culture medium and centrifuge at 1,000 rpm for 5 min. Discard the supernatant and resuspend and culture in a new cell culture medium.
THP-1 cells are cultured in the culture medium and passaged every 2-3 days.
2.1.1 Add 100 μL of cell suspension per well to the cell plate and incubate the cell plate in a 37° C., 5% CO2 incubator for 24 hours.
2.2.1 Discard the supernatant of IFN-γ differentiation after differentiation treatment. Add 100 μL of serum-free medium containing LPS (final concentration of 50 ng/mL) to the cell plate. The cell plates were incubated in a 37° C., 5% CO2 incubator for 4 h.
Place the cell plate in an incubator at 37° C. and 5% CO2 for 1 hour.
2.2.3 Add 20 μL of 6×ATP per well according to the plate map (final concentration 5 mM) and incubate the cell plate in a 37° C., 5% CO2 incubator for 1 h. Collect the supernatant (60 μL) and store at −20° C.
The capture antibody mAb Mt175 is diluted to 2 μg/mL with PBS (1:250) and added to the cell plate at 15 μL per well. Keep the plate overnight at 4° C.
2.4.1 Discard the coated antibody and wash 4 times with PBST.
2.4.3 Discard the blocking buffer and wash 4 times with PBST.
2.4.4 Add 25 μL of 2.2.3 collected supernatant sample per well and incubate for 2 h at room temperature.
2.4.5 Discard the samples and wash 4 times with PBST.
2.4.6 Add mAb7P10-biotin (concentration 0.5 ug/mL) to blocking buffer, add 15 μL per well to the cell plate, and incubate for 1 hour at room temperature.
2.4.7 Discard the antibody and wash 4 times with PBST.
2.4.8 Streptavidin-HRP was diluted 1:1000 in blocking buffer, 15 μL per well was added to the cell plate, and incubated for 1 hour at room temperature.
2.4.9 Discard streptavidin-HRP and wash 4 times with PBST.
2.4.10 Add 25 μL of HRP substrate (Surmodics-TMBW-0100-01) per well and incubate the cell plate until a blue product appears.
2.4.11 Add 25 μL of stop solution (Surmodics-LSTP-0100-01) per well, and the blue product turns yellow.
2.4.12 Read the cell plate at 450 nm with a microplate reader.

hERG potassium channel, sequence (Q12809 whole entry): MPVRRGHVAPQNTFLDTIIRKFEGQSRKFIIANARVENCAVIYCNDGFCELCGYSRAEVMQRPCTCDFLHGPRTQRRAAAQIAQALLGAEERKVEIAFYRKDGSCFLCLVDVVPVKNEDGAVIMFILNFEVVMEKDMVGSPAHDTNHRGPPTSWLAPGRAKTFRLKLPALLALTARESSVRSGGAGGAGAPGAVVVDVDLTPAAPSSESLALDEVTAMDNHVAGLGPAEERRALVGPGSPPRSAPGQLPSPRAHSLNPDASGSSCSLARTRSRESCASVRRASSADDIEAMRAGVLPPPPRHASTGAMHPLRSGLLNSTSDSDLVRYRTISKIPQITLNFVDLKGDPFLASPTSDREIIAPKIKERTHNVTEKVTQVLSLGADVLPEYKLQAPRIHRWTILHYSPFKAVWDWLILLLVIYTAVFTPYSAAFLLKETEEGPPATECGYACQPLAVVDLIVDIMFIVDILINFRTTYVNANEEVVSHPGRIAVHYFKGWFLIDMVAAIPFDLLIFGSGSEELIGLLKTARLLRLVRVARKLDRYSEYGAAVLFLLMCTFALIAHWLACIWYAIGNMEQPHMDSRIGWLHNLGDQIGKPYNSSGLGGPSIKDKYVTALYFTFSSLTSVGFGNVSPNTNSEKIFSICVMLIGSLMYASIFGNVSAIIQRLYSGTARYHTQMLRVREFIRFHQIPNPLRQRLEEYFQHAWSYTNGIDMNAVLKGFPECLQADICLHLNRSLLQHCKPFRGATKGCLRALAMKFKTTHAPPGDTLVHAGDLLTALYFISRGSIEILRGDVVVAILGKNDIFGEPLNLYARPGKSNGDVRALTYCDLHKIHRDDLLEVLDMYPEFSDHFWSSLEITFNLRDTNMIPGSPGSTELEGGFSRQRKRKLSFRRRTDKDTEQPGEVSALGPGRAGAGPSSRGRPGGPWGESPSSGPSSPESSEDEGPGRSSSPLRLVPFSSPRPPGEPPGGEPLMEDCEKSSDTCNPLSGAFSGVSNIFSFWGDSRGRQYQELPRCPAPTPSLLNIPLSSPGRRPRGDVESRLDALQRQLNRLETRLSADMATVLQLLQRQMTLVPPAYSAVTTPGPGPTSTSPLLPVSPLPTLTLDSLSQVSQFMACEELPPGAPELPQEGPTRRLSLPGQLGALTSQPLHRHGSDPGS

Compound | IC50 (NLRP3) [nM] | IC50 (hERG potassium channel) [nM]
Cc1cc(C(F)(F)F)cc(O)c1-c1cnc(N[C@@H]2CCCN(CCO)C2)nn1 [Embodiment 48, (R)-2-(3-((1-(2-hydroxyethyl)piperidin-3-yl)amino)-1,2,4-triazin-6-yl)-3-methyl-5-(trifluoromethyl)phenol] | 9.1 | > 30000
Cc1cc(Cl)cc(O)c1-c1cnc(N[C@@H]2CCCC[C@H]2O)nn1 [Embodiment 35, 5-Chloro-2-(3-(((1R,2R)-2-hydroxycyclohexyl)amino)-1,2,4-triazin-6-yl)-3-methylphenol] | 12.4 | > 30000
Oc1cc(C(F)(F)F)ccc1-c1nnc(N[C@@H]2CCCC[C@H]2O)c2c(F)cccc12 [Embodiment 135] | 5.1 | > 30000
OCCN1CCC[C@@H](Nc2nnc(-c3ccc(Cl)cc3O)c3ccccc23)C1 [Embodiment 155] | 2.5 | > 30000
CC(CO)N1CCC[C@@H](Nc2nnc(-c3ccc(C(F)(F)F)cc3O)c3ccncc23)C1 (stereo partly drawn) [Embodiment 126] | 3.9 | > 30000
Cc1cc(C(F)(F)F)cc(O)c1-c1cnc(N[C@@H]2CCCN(C(C)CO)C2)nn1 (stereo partly drawn) [Embodiment 47, 2-(3-(((3R)-1-(1-hydroxypropyl-2-yl)piperidin-3-yl)amino)-1,2,4-triazin-6-yl)-3-methyl-5-(trifluoromethyl)phenol] | 4.6 | > 30000
Oc1cc(C(F)(F)F)ccc1-c1nnc(N[C@@H]2CCCC[C@H]2O)c2ncccc12 [Embodiment 70, 2-(8-(((1R,2R)-2-hydroxycyclohexyl)amino)pyrido[2,3-d]pyridazin-5-yl)-5-(trifluoromethyl)phenol] | 5.3 | > 30000
Oc1cc(C(F)(F)F)ccc1-c1nnc(N[C@@H]2CCCC[C@H]2O)c2ccc(F)cc12 [Embodiment 137] | 2 | > 30000
Cc1cc(N[C@@H]2CCCN(C)C2)nnc1-c1ccc(C(F)(F)F)cc1O [Comparison 3] |  | < 10000
CC(CO)N1CCC[C@@H](Nc2nnc(-c3ccc(C(F)(F)F)cc3O)c3ccoc23)C1 (stereo partly drawn) [Embodiment 130] | 1.9 | > 30000
OCCN1CCC[C@@H](Nc2nnc(-c3ccc(Cl)cc3O)c3ccc(F)cc23)C1 [Embodiment 153] | 2.4 | > 30000
C[C@]1(O)C[C@@H](Nc2nnc(-c3ccc(C(F)(F)F)cc3O)c3ccc(F)cc23)C1 [Embodiment 139] | 1.9 | > 30000
Cc1nc(N[C@H]2C[C@@](C)(O)C2)nnc1-c1ccc(C(F)(F)F)cc1O [Embodiment 37, 2-(3-(((cis)-3-hydroxy-3-methylcyclobutyl)amino)-5-methyl-1,2,4-triazin-6-yl)-5-(trifluoromethyl)phenol] | 27.3 | > 30000
Cc1cc(C)c(-c2cnc(N[C@@H]3CCCN(CCO)C3)nn2)c(O)c1 [Embodiment 2, (R)-2-(3-((1-(2-hydroxyethyl)piperidin-3-yl)amino)-1,2,4-triazin-6-yl)-3,5-dimethylphenol] | 40.2 | > 30000
Cc1cc(C(F)(F)F)cc(O)c1-c1cnc(N[C@@H]2CCC[C@@H](O)C2)nn1 [Embodiment 39] |  | > 30000
CN1CCC[C@@H](Nc2nnc(-c3ccc(C(F)(F)F)cc3O)c3c2CCO3)C1 [Embodiment 19, (R)-2-(4-((1-methylpiperidin-3-yl)amino)-2,3-dihydrofuro[2,3-d]pyridazin-7-yl)-5-(trifluoromethyl)phenol] | 85.2 | 
CN1CCC[C@@H](Nc2nnc(-c3ccc(C(F)(F)F)cc3O)c3c(F)cccc23)C1 [Embodiment 122] | 2.9 | 
C[C@]1(O)C[C@@H](Nc2nnc(-c3ccc(C(F)(F)F)cc3O)c3ccccc23)C1 [Embodiment 65] | 10.4 | 
CN1CCC[C@@H](Nc2nnc(-c3ccc(Cl)cc3O)c3cnccc23)C1 [Embodiment 129] | 3.8 | 
Cc1cc(C)c(-c2cnc(N[C@@H]3CCCN(CC(=O)N[C@@H](C)CO)C3)nn2)c(O)c1 [Embodiment 24, 2-((R)-3-((6-(2-hydroxy-4,6-dimethylphenyl)-1,2,4-triazin-3-yl)amino)piperidin-1-yl)-N—((S)-1-hydroxypropyl-2-yl)acetamide] | 193 | 

More lines, main results first:

IC50 (NLRP3) [nM] | Compound | IC50 (hERG potassium channel) [nM]
2.8 | C[C@]1(O)C[C@@H](Nc2nnc(-c3ccc(C(F)(F)F)cc3O)c3cnccc23)C1 [Embodiment 78] | > 30000
9.9 | Cc1nc(N[C@@H]2CCCN(C[C@@H](C)O)C2)nnc1-c1ccc(C(F)(F)F)cc1O [Embodiment 150] | > 30000
7.4 | Cc1cc(C)c(-c2cnc(N[C@@H]3CCCN(C4CC4)C3)nn2)c(O)c1 [Embodiment 6, (R)-2-(3-((1-cyclopropylpiperidin-3-yl)amino)-1,2,4-triazin-6-yl)-3,5-dimethylphenol] | > 30000
4.7 | Oc1cc(C(F)(F)F)ccc1-c1nnc(N[C@@H]2CCCC[C@H]2O)c2ccccc12 [Embodiment 64] | > 30000
31.1 | Cc1cc(N[C@@H]2CCCN(C)C2)nnc1-c1ncc(C(F)(F)F)cc1O [Embodiment 12, (R)-2-(4-methyl-6-((1-methylpiperidin-3-yl)amino)pyridazin-3-yl)-5-(trifluoromethyl)pyridin-3-ol] | 
54.2 | Cc1nc(N[C@@H]2CCC[C@@H](O)C2)nnc1-c1ccc(C(F)(F)F)cc1O [Embodiment 36, 2-(3-(((1R,3R)-3-hydroxycyclohexyl)amino)-5-methyl-1,2,4-triazin-6-yl)-5-(trifluoromethyl)phenol] | 
1.2 | Cc1nc(N[C@@H]2CCCN(C)C2)nnc1-c1ccc(Cl)cc1O [Embodiment 7, (R)-5-Chloro-2-(5-methyl-3-((1-methylpiperidin-3-yl)amino)-1,2,4-triazin-6-yl)phenol] | 
28 | CN1CCC[C@@H](Nc2nnc(-c3ccc(C(F)(F)F)cc3O)c3occc23)C1 [Embodiment 15, (R)-2-(4-((1-methylpiperidin-3-yl)amino)furo[2,3-d]pyridazin-7-yl)-5-(trifluoromethyl)phenol] | 
16.1 | CN1CCC[C@@H](Nc2nnc(-c3ccc(C(F)(F)F)cc3O)c3ccn(C)c23)C1 [Embodiment 113] | 
4.7 | C[C@]1(O)C[C@@H](Nc2nnc(-c3ccc(C(F)(F)F)cc3O)c3cc(F)ccc23)C1 [Embodiment 138] | 
47.4 | C[C@]1(O)C[C@@H](Nc2nnc(-c3ccc(C(F)(F)F)cc3O)c3c2CCC3)C1 [Embodiment 82, 2-(4-(((cis)-3-hydroxy-3-methylcyclobutyl)amino)-6,7-dihydro-5H-cyclopenta[d]pyridazin-1-yl)-5-(trifluoromethyl)phenol] | 
